Reference: PMC6494957 (Frontiers in Microbiology, 2019)
Like-named read-outs stand apart in the source and are kept apart here.

Assays:
P. aeruginosa ATCC 27853 = experiment: microbe, parasite or virus in culture; settings: for DRI EDTA:ROB: DRI of the labelled component; for MIC: Pseudomonas aeruginosa
Outline: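 Interaction of robenidine with PMBN was quantified by checkerboard MICs after 24 h at 37°C in LB broth, using visual and 600 nm absorbance reading; results given as FICI and dose reduction index.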

HEK 293 cell line = experiment: In vitro cytotoxicity, WST-1; assay type: cell-based; settings: Homo sapiens, HEK293, 10% FBS, read-out: IC50, single agent
Experimental: (§1) Cells were maintained in Dulbecco’s modified Eagle’s medium (DMEM) with 10% fetal bovine serum (FBS) and 1% PenStrep (100 U/mL Penicillin and 100 μg/mL Streptomycin) at 37°C with 5% CO2. Cells were serially passaged at ∼80% confluence ∼ every 4 days. Assays were performed in duplicate in 96 well plates seeded with ∼25,000 cells per well. […] Briefly, the antimicrobials were prepared by performing a twofold serial dilution at 100× of tested concentration in DMSO. Subsequently, a 1 μl aliquot of each concentration was transferred to a sterile 96-well plate containing fresh DMEM with either 10% FBS. After mixing four times, the media aliquots with different concentrations of antimicrobial were transferred to each well of the 96-well plate seeded with cells, using wells containing 1–2% DMSO only as control. To determine the effect of FBS on the cytotoxicity of each compound, DMEM with 40% FBS containing different concentrations of antimicrobial was prepared as described above. After 24 h of exposure, WST-1 reagent (Cell Proliferation Assay reagent, Roche) at a concentration of 10% was added to each well. Absorbance at A450 nm on a Multiskan Ascent 354 Spectrophotometer (Labsystems) was measured after 1 h of incubation. The IC50 value was determined for each compound against each cell line via non-linear regression (three parameters) using GraphPad Prism v6 software.

[1] = system: all the cell lines tested (HaCaT, HEK 293, MDCK); experiment: cells
Experimental: as §1

[2] = system: tested pathogens (canine otitis externa isolates); experiment: MIC, summary over canine otitis externa pathogens; assay type: cell-based
Experimental: Luria Bertani (LB) broth (Oxoid, Australia) was applied for MIC testing in lieu of cation-adjusted Mueller-Hinton broth as robenidine has been previously shown to chelate calcium ions. Furthermore, a twofold serial dilution of robenidine was performed in 100% DMSO, with 1 μl dispensed to each well due to the hydrophobicity of the compound ([Abraham et al., 2016]). The MIC for ampicillin or gentamicin against each isolate was determined for each test to serve as an internal quality control. The MICs of isolates were determined by visual reading and using an EnSpire Multimode Plate Reader 2300 atA600nm. […] Each well of the plate was inoculated with an aliquot of 10 μl bacterial suspension at a concentration of 1-5 × 10^6 colony forming units (CFU) per ml. Subsequently, the plate was incubated at 37°C for 24 h. The fractional inhibitory concentration index (FICI) described the results of the combinations, and was calculated utilizing the following formula: […]

[3] = system: 18 A. baumannii isolated from human clinical cases; experiment: MIC/MBC, human clinical Acinetobacter isolates; assay type: cell-based; settings: 18 A. baumannii human clinical isolates
Source text: (§2) Escherichia coli ATCC 25922, E. coli ATCC 11229, P. aeruginosa ATCC 27853, P. aeruginosa PA01, Pseudomonas putida ATCC 17428, P. mirabilis ATCC 43071, K. pneumoniae ATCC 13883, A. baumannii ATCC 19606, and A. baumannii ATCC 12457 were used for preliminary susceptibility testing and combination experiments. S. aureus ATCC 29213 and S. pneumoniae ATCC 49619 were used as internal quality controls. A variety of bacterial organisms from both human and canine infections were investigated in this study (n = 119 isolates in total). Twenty-eight clinical Acinetobacter spp. isolates were obtained from cases of human skin and soft tissue infections, including 18 Acinetobacter baumannii and 10 A. calcoaceticus, kindly provided by a person (Institute of Medical and Veterinary Science, South Australia). […] Ninety-one clinical isolates were obtained from cases of canine otitis externa, including seven methicillin-susceptible S. pseudintermedius (MSSP), 13 multidrug- and methicillin-resistant S. pseudintermedius (MRSP) ([Saputra et al., 2017]), 20 beta-haemolytic Streptococcus spp., 30 P. aeruginosa (10 of them resistant to gentamicin and 21 P. mirabilis isolates). These isolates were obtained from the bacterial collection of the national survey of antimicrobial resistance in animals conducted in Australia. Swab samples from dogs with signs of otitis externa were collected by veterinarians and submitted to government, private or university diagnostic laboratories throughout Australia. After routine bacterial identification and the removal of confidential information, the participating veterinary diagnostic laboratories submitted the bacteria and their clinical information to PC2 Laboratories, Australian Centre for Antimicrobial Resistance Ecology, School of Animal and Veterinary Sciences, University of Adelaide, Roseworthy Campus, Roseworthy, SA, Australia, for further study. Thus, animal ethics approval was not required in this study. These organisms were identified to species level using biochemical testing and MALDI-TOF mass spectrometry (Bruker, Preston, VIC, Australia).
(§3) The MIC for ampicillin or gentamicin against each isolate was determined for each test to serve as an internal quality control. The MICs of isolates were determined by visual reading and using an EnSpire Multimode Plate Reader 2300 atA600nm.
(§4) Briefly, 10 μl aliquots from each duplicate well from the MIC assays (starting from the MIC for each compound) were inoculated onto a sheep blood agar (SBA) plate and incubated at 37°C.

[4] = system: 10 A. calcoaceticus isolated from human clinical cases; experiment: MIC/MBC, human clinical Acinetobacter isolates; assay type: cell-based; settings: 10 A. calcoaceticus human clinical isolates
Source text: as §2, §3, §4

[5] = system: Gram-negative control strains; experiment: Checkerboard, summary over Gram-negative strains; assay type: cell-based
Experimental: (§5) Briefly, antimicrobial stock solutions for robenidine and PMBN were prepared at a concentration of 12.8 mg/ml in DMSO. […] A 1 μl aliquot of the first compound from each combination was dispensed along the abscissa (from row A to G) of the 96-well microplate, while the second compound was dispensed along the ordinate (from column 12 to column 3) using an electronic multichannel pipette followed by 89 μl of LB broth. Each well of the plate was inoculated with an aliquot of 10 μl bacterial suspension at a concentration of 1-5 × 10^6 colony forming units (CFU) per ml. Subsequently, the plate was incubated at 37°C for 24 h. The fractional inhibitory concentration index (FICI) described the results of the combinations, and was calculated utilizing the following formula:
(§6) DRI = MIC of drug alone/MIC of drug in combination

[6] = set-up: method as in Abraham et al., 2016; settings: ref Abraham et al., 2016, cited from earlier work
Acinetobacter spp. = experiment: Checkerboard, summary for Acinetobacter spp.; assay type: cell-based; settings: in the presence of EDTA and PMBN
Experimental: as §5, §6

[7] = P. aeruginosa ATCC 27853, concentration of the labelled component
[8] = ATCC27853, read-out: MIC, single drug

**Q.** Which results are given for `O=C(O)CN(CCN(CC(=O)O)CC(=O)O)CC(=O)O` [EDTA, ethylenediaminetetraacetic acid]?
**A.** DRI EDTA:ROB (P. aeruginosa ATCC 27853; P. aeruginosa ATCC 27853): 2; MIC in combination EDTA:ROB (mM in parentheses) (P. aeruginosa ATCC 27853; P. aeruginosa ATCC 27853, EDTA component): 5 mM; MIC in combination EDTA:ROB (P. aeruginosa ATCC 27853; [7]): 1900 µg/mL; MIC (P. aeruginosa ATCC 27853; [8]): 3800 µg/mL; MIC (P. aeruginosa ATCC 27853; ATCC27853, read-out: MIC, single drug (mM in parentheses)): 10 mM; IC50 (HEK 293 cell line): 3.4 mM; IC50 [1]: 3.4 mM

**Q.** Which “MIC, single drug” value (P. aeruginosa ATCC 27853; P. aeruginosa ATCC 27853) does the source give for `N=C(N/N=C/c1ccc(Cl)cc1)N/N=C/c1ccc(Cl)cc1` [ROB, robenidine] here?
**A.** Its value is >256 µg/mL.

**Q.** What about the “DRI EDTA:ROB” value (P. aeruginosa ATCC 27853; P. aeruginosa ATCC 27853) of the same compound?
**A.** The value was 256.

**Q.** What about the “MIC in combination EDTA:ROB” value (P. aeruginosa ATCC 27853; [7]) of the same compound?
**A.** The value was 1.25 µg/mL.

**Q.** And the “MIC in combination PMBN:ROB” value (P. aeruginosa ATCC 27853; [7])?
**A.** Its value is 1 µg/mL.

**Q.** What about the MIC (P. aeruginosa ATCC 27853; [8]) of the same compound?
**A.** Its MIC is > 256 µg/mL.

**Q.** And the MIC values ([2]; Gram-positive bacteria: S. pseudintermedius and beta-haemolytic streptococci)?
**A.** The MIC values was 1 to 16 µg/mL.

**Q.** And the MIC90 of robenidine ([2]; in the presence of EDTA, tested pathogens)?
**A.** The MIC90 of robenidine was 0.5 to 4 µg/mL.

**Q.** And the MIC range [3]?
**A.** The MIC range was 8 to 64 µg/mL.

**Q.** What about the MIC ([3]; Acinetobacter baumannii) of the same compound?
**A.** The MIC was 8 µg/mL.

**Q.** And the MIC range [4]?
**A.** The MIC range was 1 to 8 µg/mL.

**Q.** What about the MIC ([4]; Acinetobacter calcoaceticus) of the same compound?
**A.** The MIC was 2 µg/mL.

**Q.** What about the “lowest robenidine concentration inhibiting growth” value ([5]; in combination with PMBN, Gram-negative ATCC strains of ESKAPE pathogens) of the same compound?
**A.** The value was ≥ 0.125 µg/mL.

**Q.** And the DRIs of robenidine ([5]; in the presence of EDTA, Gram-negative control strains (Table 1))?
**A.** The DRIs of robenidine was 2- to 256 fold.

**Q.** And the DRIs of robenidine ([5]; in the presence of PMBN, Gram-negative control strains (Table 2))?
**A.** The DRIs of robenidine was 8- to 256 fold.

**Q.** And the MIC ([5]; in the presence of PMBN, Gram-negative pathogens, read-out: MIC of robenidine)?
**A.** The MIC was 0.5 to 8 µg/mL.

**Q.** And the DRIs of robenidine ([5]; in the presence of both EDTA and PMBN, all tested isolates (abstract))?
**A.** Its DRIs of robenidine is 2- to 2048 fold.

**Q.** What about the “fold increase in susceptibility” value ([5]; robenidine in combination with PMBN, Gram-negative ATCC strains of ESKAPE pathogens) of the same compound?
**A.** The value was 4- to 256 fold.

**Q.** What about the “serum impact on MIC values” ([6]; 10% serum) of the same compound?
**A.** The value was “fourfold increase”.

**Q.** And the “serum impact on MIC values” ([6]; 50% serum)?
**A.** Its value is “no antimicrobial activity”.

**Q.** What about the “fold reduction of robenidine MICs” value (Acinetobacter spp.) of the same compound?
**A.** The value was 8- to 32 fold.
